Data as given in ChEMBL document CHEMBL6182941, “Prodrugs Targeting Prostate-Specific Membrane Antigen against Prostate Cancer” (J Med Chem, 2025).

Experiments:
[1] = molecular target: T1, Glutamate carboxypeptidase 2 (Homo sapiens, UniProt Q04609); test: Binding affinity to human recombinant PSMA in LNCaP cells assessed as inhibition constant; format: cell-based
[2] = molecular target: T2, N-acetylaspartylglutamate synthase A (Homo sapiens, UniProt Q8IXN7); test: Binding affinity to NAAG synthetase A (unknown origin) assessed as inhibition constant
T2 sequence (Q8IXN7 whole entry): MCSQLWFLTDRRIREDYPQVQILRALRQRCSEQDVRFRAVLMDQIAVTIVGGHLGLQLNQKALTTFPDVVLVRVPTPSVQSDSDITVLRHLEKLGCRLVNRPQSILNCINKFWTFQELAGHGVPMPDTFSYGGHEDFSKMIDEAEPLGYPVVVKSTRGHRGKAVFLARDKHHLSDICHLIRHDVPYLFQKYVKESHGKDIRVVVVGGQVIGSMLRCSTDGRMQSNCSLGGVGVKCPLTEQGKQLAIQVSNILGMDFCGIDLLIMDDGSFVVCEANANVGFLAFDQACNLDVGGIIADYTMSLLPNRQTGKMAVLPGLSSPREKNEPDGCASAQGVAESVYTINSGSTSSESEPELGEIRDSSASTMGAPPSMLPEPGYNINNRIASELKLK

[3] = molecular target: N-acetylated-alpha-linked acidic dipeptidase 2 (Homo sapiens, UniProt Q9Y3Q0); test: Binding affinity to NAALAD-2 (unknown origin) assessed as inhibition constant
[4] = molecular target: T1, Glutamate carboxypeptidase 2; test: Inhibition of human recombinant PSMA
[5] = system: LNCaP; test: Cytotoxicity against human LNCaP cells assessed as cell death measured for 24 hrs; format: functional, cell-based
[6] = system: KB; test: Cytotoxicity against human KB cells assessed as reduction in cell growth; format: functional, cell-based
[7] = system: A549; test: Cytotoxicity against human A549 cells assessed as reduction in cell growth; format: functional, cell-based
[8] = Cytotoxicity against human PC3-PIP cells; details: PC3-PIP cell
[9] = Cytotoxicity against human PC-3 flu cells
[10] = Cytotoxicity against human PC3-PIP cells assessed as reduction in cell viability incubated for 72 hrs by CCK-8 assay
[11] = Cytotoxicity against human PC-3 flu cells assessed as reduction in cell viability incubated for 72 hrs by CCK-8 assay
[12] = molecular target: Cathepsin B (Homo sapiens, UniProt P07858); test: Inhibition of cathepsin B (unknown origin)
[13] = Antiproliferative activity against human PC3-PIP cells assessed as reduction in cell viability incubated for 72 hrs by XTT assay
[14] = Antitumor activity against human PC3-PIP cells xenografted in […] assessed as reduction in tumor volume at 80 mg/kg, IP; format: functional, PC3-PIP cell
[15] = system: CWR22R; test: Cytotoxicity against human 22Rv1 cells assessed as reduction in cell viability incubated for 48 hrs by MTT assay; format: functional, cell-based; details: 22Rv1, 48 h
[16] = Cytotoxicity against human HK-2 cells assessed as reduction in cell viability incubated for 48 hrs by MTT assay; format: toxicity, cell-based
[17] = system: LNCaP; test: Cytotoxicity against human LNCaP cells assessed as reduction in cell viability incubated for 72 hrs by MTT assay
[18] = system: DU-145; test: Cytotoxicity against human DU-145 cells assessed as reduction in cell viability incubated for 72 hrs by MTT assay; details: DU-145, 72 h
[19] = Half life in BALB/c mouse at 67 mg/kg by LC-MS/MS analysis; format: ADME, organism-based; details: in vivo

T1 sequence (Q04609 whole entry): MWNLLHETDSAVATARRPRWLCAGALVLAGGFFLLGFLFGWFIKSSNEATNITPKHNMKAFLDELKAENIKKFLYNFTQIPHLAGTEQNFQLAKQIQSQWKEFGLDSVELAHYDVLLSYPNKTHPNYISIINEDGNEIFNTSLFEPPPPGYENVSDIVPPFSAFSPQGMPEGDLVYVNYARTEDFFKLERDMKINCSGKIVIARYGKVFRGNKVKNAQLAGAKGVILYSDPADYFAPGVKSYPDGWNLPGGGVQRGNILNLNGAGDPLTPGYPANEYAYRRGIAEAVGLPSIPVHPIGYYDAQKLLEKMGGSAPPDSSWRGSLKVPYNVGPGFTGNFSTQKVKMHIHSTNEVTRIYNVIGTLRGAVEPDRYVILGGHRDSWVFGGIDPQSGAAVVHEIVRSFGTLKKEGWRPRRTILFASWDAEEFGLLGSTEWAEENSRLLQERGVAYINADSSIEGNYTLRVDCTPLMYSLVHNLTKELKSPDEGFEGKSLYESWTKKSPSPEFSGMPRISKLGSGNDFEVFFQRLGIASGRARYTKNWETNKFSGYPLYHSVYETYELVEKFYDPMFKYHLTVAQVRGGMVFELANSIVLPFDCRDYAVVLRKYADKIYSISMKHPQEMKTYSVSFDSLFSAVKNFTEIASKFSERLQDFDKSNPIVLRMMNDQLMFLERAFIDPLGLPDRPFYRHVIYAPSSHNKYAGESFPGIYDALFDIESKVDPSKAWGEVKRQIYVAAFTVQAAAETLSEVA
Sequence of N-acetylated-alpha-linked acidic dipeptidase 2 (Q9Y3Q0 whole entry): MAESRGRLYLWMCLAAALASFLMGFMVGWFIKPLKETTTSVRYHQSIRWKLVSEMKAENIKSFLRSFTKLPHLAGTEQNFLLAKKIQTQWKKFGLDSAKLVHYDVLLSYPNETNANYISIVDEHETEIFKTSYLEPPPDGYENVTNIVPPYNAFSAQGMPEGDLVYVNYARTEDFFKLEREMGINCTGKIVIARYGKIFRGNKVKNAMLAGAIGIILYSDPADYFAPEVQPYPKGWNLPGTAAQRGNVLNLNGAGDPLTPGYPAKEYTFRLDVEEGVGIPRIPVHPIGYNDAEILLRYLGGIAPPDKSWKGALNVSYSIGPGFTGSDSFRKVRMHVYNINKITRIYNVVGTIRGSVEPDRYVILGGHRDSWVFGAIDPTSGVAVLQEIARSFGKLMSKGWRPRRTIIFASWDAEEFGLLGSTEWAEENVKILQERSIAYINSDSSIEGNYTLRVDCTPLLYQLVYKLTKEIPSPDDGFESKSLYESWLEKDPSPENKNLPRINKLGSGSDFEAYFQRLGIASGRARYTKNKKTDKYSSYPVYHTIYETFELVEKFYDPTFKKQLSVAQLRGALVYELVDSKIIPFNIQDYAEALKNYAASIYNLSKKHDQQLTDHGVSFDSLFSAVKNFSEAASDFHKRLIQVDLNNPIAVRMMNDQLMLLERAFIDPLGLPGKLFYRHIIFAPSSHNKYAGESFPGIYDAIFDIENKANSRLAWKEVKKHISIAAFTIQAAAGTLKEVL

## NCCCC[C@H](NC(=O)N[C@@H](CCC(=O)O)C(=O)O)C(=O)O
[1]
  Ki: 12 nM

## O=C(O)CC[C@H](NC(=O)N[C@@H](CCC(=O)O)C(=O)O)C(=O)O
[2]
  Ki: 8 nM

## O=C(O)CCC(CP(=O)(O)O)C(=O)O (stereo not given)
[3]
  Ki: ~0.275 nM

## CSC[C@@H](NC(=O)N[C@H](CCC(=O)O)C(=O)O)C(=O)O
[4]
  IC50: 15.3 nM

## CCCC(=O)OCN(C(=O)[C@@H](NC(=O)[C@H]1CCCCN1C)[C@@H](C)CC)[C@H](C[C@@H](OC(C)=O)c1nc(C(=O)N[C@@H](Cc2ccc(O)cc2)C[C@H](C)C(=O)NNC(=O)OCCSSC[C@H](NC(=O)[C@H](CC(=O)O)NC(=O)[C@H](CC(=O)O)NC(=O)Cc2ccc(CNC(=O)NCCCC[C@@H](NC(=O)N[C@H](CCC(=O)O)C(=O)O)C(=O)O)cc2)C(=O)O)cs1)C(C)C
[5]
  IC50: ~13 nM
[6]
  IC50: 0.6 nM
[7]
  IC50: 0.9 nM

## CC[C@@H](C)[C@H]([C@H](CC(=O)N1CCC[C@@H]1[C@@H](OC)[C@H](C)C(=O)N[C@@H](C)[C@H](O)c1ccccc1)OC)N(C)C(=O)[C@H](NC(=O)[C@@H](C(C)C)N(C)C(=O)OCc1ccc(NC(=O)[C@@H](CCCNC(N)=O)NC(=O)[C@@H](NC(=O)CCCCCN2C(=O)CC(SC[C@H](NC(=O)[C@H](CCC(=O)O)NC(=O)[C@H](CCC(=O)O)NC(=O)[C@H](CCC(=O)O)NC(=O)CCCCCNC(=O)[C@H]3CC[C@H](CNC(=O)CC[C@@H](NC(=O)N[C@H](CCC(=O)O)C(=O)O)C(=O)O)CC3)C(=O)NCCCCCC(=O)N[C@@H](CCCCNC(=O)CCCCC[N+]3=C(/C=C/C=C/C=C4/N(C)c5ccc6ccccc6c5C4(C)C)C(C)(C)c4c3ccc3ccccc43)C(=O)O)C2=O)C(C)C)cc1)C(C)C (stereo not given in full)
[8]
  IC50: 4.34 nM
[9]
  IC50: 4.64 nM
[10]
  IC50: 0.84 nM
[11]
  IC50: 17 nM

## CC[C@@H](C)[C@H]([C@H](CC(=O)N1CCC[C@@H]1[C@@H](OC)[C@H](C)C(=O)N[C@@H](C)[C@H](O)c1ccccc1)OC)N(C)C(=O)[C@@H](NC(=O)[C@H](C(C)C)N(C)C(=O)OCc1ccc(NC(=O)[C@@H](CCCNC(N)=O)NC(=O)[C@H](NC(=O)CCCCCCC(=O)NCCCC[C@@H](NC(=O)N[C@H](CCC(=O)O)C(=O)O)C(=O)O)C(C)C)cc1)C(C)C
[12]
  IC50: ~0.04 nM
[13]
  IC50: 3.9 nM
[14]
  Activity: 62.4 mm3

## CC(=O)O[C@H]1C(=O)[C@@]2(C)[C@H]([C@H](OC(=O)c3ccccc3)[C@]3(O)C[C@H](OC(=O)[C@H](OC(=O)CSSCC(=O)NCCNC(=O)CC[C@@H](NC(=O)N[C@H](CCC(=O)O)C(=O)O)C(=O)O)[C@@H](NC(=O)c4ccccc4)c4ccccc4)C(C)=C1C3(C)C)[C@]1(OC(C)=O)CO[C@@H]1C[C@@H]2O
[15]; read-out: IC50
  IC50: 121 nM
[16]
  IC50 at 48 h: 14.2 nM

## CC[C@H](C)[C@@H]([C@@H](CC(=O)N1CCC[C@H]1[C@H](OC)[C@@H](C)C(=O)N[C@H](C)[C@@H](O)c1ccccc1)OC)N(C)C(=O)[C@@H](NC(=O)[C@H](C(C)C)N(C)C(=O)OCc1ccc(NC(=O)[C@H](CCCNC(N)=O)NC(=O)[C@@H](NC(=O)CCCCCN2C(=O)CC(SCCC(=O)NC(Cc3cn(CCOCCNCCCCCCOc4cc(OCCCc5c(C)n[nH]c5C)cc(C(=O)O)c4)nn3)C(=O)NCCCCCC(=O)NCCCC[C@H](NC(=O)N[C@@H](CCC(=O)O)C(=O)O)C(=O)O)C2=O)C(C)C)cc1)C(C)C (stereo not given in full)
[17]
  IC50: 5.4 nM
[18]
  IC50: 313 nM

## C/C=C(/C)C(=O)O[C@H]1C(C)=C2[C@H]([C@@H]1OC(=O)CCCCCCC)[C@@](C)(OC(C)=O)C[C@H](OC(=O)CCCCCCCCCCCNC(=O)C[C@H](N)C(=O)N[C@@H](CCC(=O)N[C@@H](CCC(=O)N[C@@H](CCC(=O)N[C@@H](CCC(=O)O)C(=O)O)C(=O)O)C(=O)O)C(=O)O)[C@@]1(O)[C@H]2OC(=O)[C@@]1(C)O [MIPSAGARGIN]
[19]
  half-life: 4.9 h

## CC(=O)O[C@H]1C(=O)[C@@]2(C)[C@H]([C@H](OC(=O)c3ccccc3)[C@]3(O)C[C@H](OC(=O)[C@H](O)[C@@H](NC(=O)c4ccccc4)c4ccccc4)C(C)=C1C3(C)C)[C@]1(OC(C)=O)CO[C@@H]1C[C@@H]2O [PACLITAXEL]
[15]
  IC50: 563 nM
